Structures are written as SMILES. Calls of active or inactive are those of the source. The calls are words filed in the database; no cut-off is given here.

The subject of data set [1] is BMMC. Briefly: Anti-osteoclastogenesis activity in M-CSF/RANKL-induced C57BL/6J mouse BMMC cells assessed as inhibition of Nfatc1 gene expression by RNA sequencing analysis. Type of data set: functional, cell-based.
The subject of data set [2] is BMMC. Nature of the data set: Anti-osteoclastogenesis activity in M-CSF/RANKL-induced C57BL/6J mouse BMMC cells assessed as reduction in size and amount of osteoclasts by measuring reduction in F-actin ring formation incubated for 7 days by rhodamine-labeled phalloidin staining based fluorescence microscopic analysis. The data set is classed as functional, cell-based. The settings on record: dose 0.05-0.5 µM, time 7.0 day.

The test system of data set [3] is BMMC. Briefly: Anti-osteoclastogenesis activity in M-CSF/RANKL-induced C57BL/6J mouse BMMC cells assessed as reduction in TRAP protein expression measured after 3 days by Western blot analysis. The data set is classed as functional, cell-based. The settings on record: dose 0.05-5 µM, time 3.0 day.
The test system of data set [4] is BMMC. Nature of the data set: Anti-osteoclastogenesis activity in M-CSF/RANKL-induced C57BL/6J mouse BMMC cells assessed as inhibition of Mapk12 gene expression by RNA sequencing analysis. The data set is classed as functional, cell-based.
For data set [5], the system named is BMMC. Briefly: Anti-osteoclastogenesis activity in M-CSF/RANKL-induced C57BL/6J mouse BMMC cells assessed as reduction in osteoclast generation at 0.5 uM incubated for 7 days by TRAP staining based analysis relative to control. Also on record: scale not given: the % may be the effect or the level left. The following applies: time 7 day. The data set is classed as functional.

Data set [6] deals with BMMC. Briefly: Anti-osteoclastogenesis activity in M-CSF/RANKL-induced C57BL/6J mouse BMMC cells assessed as inhibition of CALCR gene expression by RNA sequencing analysis. Type of data set: functional, cell-based.
The test system of data set [7] is BMMC. Nature of the data set: Anti-osteoclastogenesis activity in M-CSF/RANKL-induced C57BL/6J mouse BMMC cells assessed as inhibition of Oscar gene expression by RNA sequencing analysis. Type of data set: functional, cell-based.
For data set [8], the system named is Mus musculus. Briefly: Anti-osteoporosis activity in ovariectomized C57BL/6 mouse assessed as prevention of bone loss by measuring recovery of trabecular thickness in femur at 0.2 to 0.6 mg/kg, ip administered every day for 6 weeks by 3D-imaging analysis. The data set is classed as functional, organism-based. The following applies: dose 0.2-0.6 mg/kg.
Data set [9] relates to BMMC. Nature of the data set: Anti-osteoclastogenesis activity in M-CSF/RANKL-induced C57BL/6J mouse BMMC cells assessed as inhibition of MMP9 gene expression by RNA sequencing analysis. Type of data set: functional, cell-based.
A short description of data set [10]: AUC (0 to infinity) in ICR mouse at 1 mg/kg, iv measured upto 24 hrs by LC-MS/MS analysis. The data set is classed as ADME, organism-based. The following applies: in vivo.
Data set [11] is described as follows: Tmax in ICR mouse at 1 mg/kg, iv measured upto 24 hrs by LC-MS/MS analysis. The settings on record: in vivo. Type of data set: ADME, organism-based.
The nature of data set [12]: Total plasma clearance in ICR mouse at 1 mg/kg, iv measured upto 24 hrs by LC-MS/MS analysis. The data set is classed as ADME, organism-based.
In data set [13] the test system is BMMC. Briefly: Anti-osteoclastogenesis activity in M-CSF/RANKL-induced C57BL/6J mouse BMMC cells assessed as inhibition of Fosl1 gene expression by RNA sequencing analysis. Type of data set: functional, cell-based.
Data set [14] relates to BMMC. Nature of the data set: Anti-osteoclastogenesis activity in M-CSF/RANKL-induced C57BL/6J mouse BMMC cells assessed as inhibition of Traf6 gene expression by RNA sequencing analysis. The data set is classed as functional, cell-based.
Data set [15] concerns BMMC. Nature of the data set: Anti-osteoclastogenesis activity in M-CSF/RANKL-induced C57BL/6J mouse BMMC cells assessed as inhibition of FOS gene expression by RNA sequencing analysis. Type of data set: functional, cell-based.
For data set [16], the system named is BMMC. Briefly: Anti-osteoclastogenesis activity in M-CSF/RANKL-induced C57BL/6J mouse BMMC cells assessed as reduction in MMP9 protein expression measured after 3 days by Western blot analysis. Type of data set: functional, cell-based. The settings on record: dose 0.05-5 µM, time 3.0 day.
Data set [17] has as its system BMMC. Nature of the data set: Anti-osteoclastogenesis activity in M-CSF/RANKL-induced C57BL/6J mouse BMMC cells assessed as inhibition of Il1b gene expression by RNA sequencing analysis. Type of data set: functional, cell-based.
The subject of data set [18] is BMMC. Nature of the data set: Anti-osteoclastogenesis activity in M-CSF/RANKL-induced C57BL/6J mouse BMMC cells assessed as reduction in TRAP mRNA expression at 0.05 to 5 uM measured after 2 days by RT-qPCR analysis. Type of data set: functional, cell-based. The settings on record: dose 0.05-5 µM, time 2.0 day.
In data set [19] the test system is BMMC. Briefly: Anti-osteoclastogenesis activity in M-CSF/RANKL-induced C57BL/6J mouse BMMC cells assessed as inhibition of osteoclast differentiation at late stage at 0.1 uM measured after 5 to 7 days by TRAP staining based analysis relative to control. Type of data set: functional. The settings on record: time 5-7 day.
The nature of data set [20]: Oral bioavailability in ICR mouse at 10 mg/kg measured upto 24 hrs by LC-MS/MS analysis. Type of data set: ADME, organism-based. The settings on record: in vivo.
A short description of data set [21]: Terminal elimination half life in ICR mouse at 10 mg/kg, po measured upto 24 hrs by LC-MS/MS analysis. The settings on record: in vivo, read-out: beta t1/2 (converted). The data set is classed as ADME, organism-based.
In data set [22] the test system is BMMC. Briefly: Potency index, ratio of bisnoralcohol IC50 to test compound IC50 for anti-osteoclastogenesis activity in M-CSF/RANKL-induced C57BL/6J mouse BMMC cells assessed as inhibition of osteoclast differentiation incubated for 7 days by TRAP staining based analysis. The following applies: time 7 day. Type of data set: functional.
Data set [23] concerns BMMC. Nature of the data set: Anti-osteoclastogenesis activity in M-CSF/RANKL-induced C57BL/6J mouse BMMC cells assessed as inhibition of osteoclast differentiation at mid-stage at 0.1 uM measured after 3 to 5 days by TRAP staining based analysis relative to control. The data set is classed as functional. The following applies: time 3-5 day.

Turning to `CCNC(=O)[C@@H](C)[C@H]1CC[C@H]2[C@@H]3CC=C4C(C)(C)c5nnsc5C[C@]4(C)[C@H]3CC[C@]12C`, the result in data set [1], in [4], in data set [6], in data set [7], in [9] and in data set [13] was Active. The outcome in data set [14], in data set [15], in [17] and in data set [18] was Active. Also, the Activity entry was “Dose-Dependent Effect” in data set [2], “Dose-Dependent Effect” in data set [3], ~100% in [5] and “Dose-Dependent Effect” in data set [16]. Also, the result in [8] was inactive. For the same compound, in data set [10], the AUC(0-inf) stood at 526 ng·h/mL. For the same compound, the Tmax in [11] was 4.8 min. In [12], this compound gave a clearance of 31.7 mL/min/kg. Also, the inhibition at 0.1 µM in data set [19] stood at 10.9%; in data set [23], 40.2%. Further, the bioavailability in [20] was 13.1%. The half-life in data set [21] is 107 min. Also, the “Ratio IC50” value in data set [22] turned out to be 45.
